This experiment has as its system human IL-2 promoter. As to the kind of experiment: IL-2luc activity (luciferase under control of IL-2 promoter) of Jurkat cells co-cultured with IFN-γ-treated A549 cells. In kind it is cell-based. To be noted: control (DMSO) IFN-γ(−) defined as 100%, control IFN-γ(+) 54.5. As to the method:
The pIL-2luc obtained by the insertion of a human IL-2 promoter sequence (−945 to 53) into the multiple cloning site of pGL-3 vector basic (Promega) was preliminarily transfected into Jurkat cells. PMA and PHA-L were added into the Jurkat cells and the cells were pre-cultured. Simultaneously, IFN-γ was added into A549 cells and the cells were pre-cultured. The supernatants of each culture liquid at the time of the pre-culture of each cell were removed, the culture liquids were co-cultured in new medium. The luciferase activity of the co-cultured Jurkat cells was measured. Each test compound was added into the A549 cell culture liquid during the pre-culture.
A549 cells were suspended in DMEM medium at a concentration of 3×10^5 cells/mL to prepare a suspension, and the suspension was dispensed into a T25 flask in an amount of 5 mL and cultured
Separately, 5 μg of pIL-2luc DNA and 15 μL of TransIT-Jurkat reagent (Takara Bio: Cat #V2124) were added into 500 μL of serum-free medium, and the medium was allowed to stand at room temperature for 15 minutes. […]
LAS in Luciferase Assay System was dissolved in LAB to prepare a luciferase reagent. 10 μL of the sample was mixed with 50 μL of the luciferase reagent, and the chemiluminescence (Relative Luminescence Intensity: RLU) of the sample was measured using GloMax20/20 (Promega). […]

This note sets out measurements from US11591297B2, “Compound having PD-L1 expression-suppressing action” (TOHOKU UNIVERSITY, priority 2019, dated 2023).

Molecules are shown by their SMILES.

Under “0.5 μM”, `O=C(Nc1ccc(Oc2ccc(S(F)(F)(F)(F)F)cc2)cc1)C1CCCN(C(=O)c2ccc([N+](=O)[O-])cc2)C1` (centres unmarked) [Example 5, 1-(4-Nitrobenzoyl)-N-(4-(4-(pentafluorosulfanyl)phenoxy)phenyl)piperidine-3-carboxamide] registered an activity at 0.5 µM of 63.5%. The same compound returned an activity at 1 µM (1 μM) of 85.9%.
